Reference: patent publication US20230263822A1, “MODULATION OF FACTOR 11 EXPRESSION” (Ionis Pharmaceuticals, Inc., priority 2008, published 2023)
Strand notation (5' to 3'): a small letter for the sugar, then the base; units joined by * are phosphorothioate-linked, units joined directly phosphodiester-linked; [ ] holds rarer units or linkages, { } end groups; capitals alone tell only the bases. e = 2'-O-(2-methoxyethyl) (MOE); [5mC] = 5-methylcytosine; d = 2'-deoxy (DNA)

Key:
[1] = Tolerability in Sprague-Dawley rats: kidney function, urine protein/creatinine (Example 35); settings: for BUN / Creatinine: Sprague-Dawley rats, plasma; for Urine protein/creatinine ratio: Sprague Dawley rats
Description: A control group of four Sprague Dawley rats was injected subcutaneously with PBS twice per week for 6 weeks. Body weight measurements were taken before and throughout the treatment period. Urine samples were taken before the start of treatment. Three days after the last dose, urine samples were taken and the rats were sacrificed. Organ weights were measured and blood was collected for further analysis.
To evaluate the effect of kidney function, plasma concentrations of blood urea nitrogen (BUN) and creatinine were measured using an automated clinical chemistry analyzer (Hitachi Olympus AU400e, Melville, N.Y.).

Factor 11 mRNA = Factor 11 mRNA in cynomolgus monkey liver, day 55 (Example 46); format: in vivo, cynomolgus monkeys; settings: for Factor 11 mRNA in liver vs PBS control: cynomolgus monkeys, 25 mg/kg; for % inhibition of Factor 11 mRNA in liver relative to the PBS control: 25 mg/kg subcutaneously, primer probe set LTS00301
Description: Groups, each consisting of two male and two female monkeys, were injected subcutaneously with 25 mg/kg of ISIS 416850, ISIS 449709, ISIS 445522, ISIS 449710, ISIS 449707, ISIS 449711, ISIS 449708, 416858, and ISIS 445531. Antisense oligonucleotide was administered to the monkeys at 25 mg/kg three times per week for week 1 and 25 mg/kg twice per week for weeks 2 to 8. A control group, consisting of two male and two female monkeys was injected subcutaneously with PBS according to the same dosing regimen. Body weights were taken 14 days and 7 days before the start of treatment and were then measured weekly throughout the treatment period. Blood samples were collected 14 days and 5 days before the start of treatment and subsequently several times during the dosing regimen for PT and aPTT measurements, and measurement of various hematologic factors. On day 55, the monkeys were euthanized by exsanguination while under deep anesthesia, and organs harvested for further analysis.
On day 55, RNA was extracted from liver tissue for real-time PCR analysis of Factor 11 using primer probe set LTS00301. Results are presented as percent inhibition of Factor 11, relative to PBS control.

human Factor 11 mRNA [2] = experiment: Antisense inhibition of human Factor 11 in HepG2 cells, electroporation, 8,000 nM (Example 30); format: cell-based; settings: electroporation, 8,000 nM antisense oligonucleotide
Summary of the method: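 HepG2 cells electroporated with 8,000 nM 5-10-5, 5-8-5 or 6-8-6 MOE gapmers (phosphorothioate, 5-methylcytidine), ~24 h. Factor 11 mRNA quantified by qRT-PCR, normalised to RIBOGREEN total RNA. Reported as percent inhibition versus untreated cells.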

human Factor 11 mRNA [3] = experiment: Dose-dependent inhibition of human Factor 11 in HepG2 cells, lipofectin 9.375-75 nM (Example 4); format: cell-based; settings: for percent inhibition of Factor 11 at 9.375 nM / percent inhibition of Factor 11 at 18.75 nM / percent inhibition of Factor 11 at 37.5 nM / percent inhibition of Factor 11 at 75 nM: relative to untreated control cells
Summary of the method: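 HepG2 cells transfected via lipofectin with antisense oligonucleotide at 9.375, 18.75, 37.5 or 75 nM for about 16 h. Factor 11 mRNA quantified by real-time RT-PCR (primer probe set RTS 2966) and normalized to total RNA (RIBOGREEN). Results expressed as percent inhibition versus untreated cells.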

human Factor 11 mRNA [4] = experiment: Dose-dependent inhibition of human Factor 11 in HepG2 cells, electroporation 0.7-20 uM (Example 4); format: cell-based; settings: for percent inhibition of Factor 11 at 0.7 μM / percent inhibition of Factor 11 at 2.2 μM / percent inhibition of Factor 11 at 6.7 μM / percent inhibition of Factor 11 at 20 μM: relative to untreated control cells
Summary of the method: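 HepG2 cells electroporated with antisense gapmers at 0.7, 2.2, 6.7 and 20 μM, treated ~16 h. Factor 11 mRNA quantified by qRT-PCR (primer probe set RTS 2966), normalised to RIBOGREEN total RNA; expressed as percent inhibition versus untreated control cells.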

[5] = 50 mg/kg s.c. twice per week for 6 weeks
[6] = After treatment, 50 mg/kg s.c. twice per week for 6 weeks
[7] = Before antisense oligonucleotide treatment

Substance: ISIS 416850: MOE gapmer, nucleobases 1275 to 1318 of SEQ ID NO: 1 (Table 8) (antisense TGCACAGTTTCTGGCAGGCC; MOE gapmer, wing and gap sizes not given here)
- BUN [1, 5]: 5 mg/dL
- Creatinine [1, 5]: 7 mg/dL
- Factor 11 mRNA in liver vs PBS control (Factor 11 mRNA): significant reduction of Factor 11 mRNA

Substance: ISIS 449709: 3-8-3, 4-8-4, 2-10-2, 3-10-3 or 4-10-4 MOE microwalk gapmer (Table 46) (antisense eG*e[5mC]*eA*e[5mC]*dA*dG*dT*dT*dT*d[5mC]*dT*dG*dG*d[5mC]*eA*eG*eG*e[5mC])
- Factor 11 mRNA in liver vs PBS control (Factor 11 mRNA): significant reduction of Factor 11 mRNA

Substance: ISIS 445522: 5-8-5 or 6-8-6 MOE microwalk gapmer (Table 44) (antisense eG*e[5mC]*eA*e[5mC]*eA*dG*dT*dT*dT*d[5mC]*dT*dG*dG*e[5mC]*eA*eG*eG*e[5mC])
- Factor 11 mRNA in liver vs PBS control (Factor 11 mRNA): significant reduction of Factor 11 mRNA

Substance: ISIS 449708: 3-8-3, 4-8-4, 2-10-2, 3-10-3 or 4-10-4 MOE microwalk gapmer (Table 46) (antisense eA*e[5mC]*eA*dG*dT*dT*dT*d[5mC]*dT*dG*dG*e[5mC]*eA*eG)
- Factor 11 mRNA in liver vs PBS control (Factor 11 mRNA): significant reduction of Factor 11 mRNA

Substance: ISIS 449710: 3-8-3, 4-8-4, 2-10-2, 3-10-3 or 4-10-4 MOE microwalk gapmer (Table 46) (antisense e[5mC]*eA*e[5mC]*dA*dG*dT*dT*dT*d[5mC]*dT*dG*dG*d[5mC]*eA*eG*eG)
- Factor 11 mRNA in liver vs PBS control (Factor 11 mRNA): significant reduction of Factor 11 mRNA

Substance: ISIS 416858: MOE gapmer, nucleobases 1275 to 1318 of SEQ ID NO: 1 (Table 8) (antisense ACGGCATTGGTGCACAGTTT; MOE gapmer, wing and gap sizes not given here)
- BUN [1, 5]: 8 mg/dL
- Creatinine [1, 5]: 4 mg/dL
- Factor 11 mRNA in liver vs PBS control (Factor 11 mRNA): significant reduction of Factor 11 mRNA

Substance: 445522 (antisense eG*e[5mC]*eA*e[5mC]*eA*dG*dT*dT*dT*d[5mC]*dT*dG*dG*e[5mC]*eA*eG*eG*e[5mC]) [compound 445522]
- Percent inhibition of human Factor 11 mRNA levels (human Factor 11 mRNA [2]): 91%
- % inhibition of Factor 11 mRNA in liver relative to the PBS control (Factor 11 mRNA): 89%

Substance: ISIS 445531: 5-8-5 or 6-8-6 MOE microwalk gapmer (Table 44) (antisense eG*eG*e[5mC]*eA*eT*dT*dG*dG*dT*dG*d[5mC]*dA*d[5mC]*eA*eG*eT*eT*eT)
- Factor 11 mRNA in liver vs PBS control (Factor 11 mRNA): significant reduction of Factor 11 mRNA

Substance: 445531 (antisense eG*eG*e[5mC]*eA*eT*dT*dG*dG*dT*dG*d[5mC]*dA*d[5mC]*eA*eG*eT*eT*eT) [compound 445531]
- Percent inhibition of human Factor 11 mRNA levels (human Factor 11 mRNA [2]): 90%
- % inhibition of Factor 11 mRNA in liver relative to the PBS control (Factor 11 mRNA): 66%

Substance: 416858 (antisense ACGGCATTGGTGCACAGTTT; 5-10-5 gapmer, further chemistry not given here) [compound 416858]
- Percent inhibition of human Factor 11 mRNA levels (human Factor 11 mRNA [2]): 90%
- IC50 (human Factor 11 mRNA [3]): 33 nM
- percent inhibition of Factor 11 at 9.375 nM (human Factor 11 mRNA [3]): 0%
- percent inhibition of Factor 11 at 18.75 nM (human Factor 11 mRNA [3]): 28%
- percent inhibition of Factor 11 at 37.5 nM (human Factor 11 mRNA [3]): 54%
- percent inhibition of Factor 11 at 75 nM (human Factor 11 mRNA [3]): 82%
- Urine protein/creatinine ratio [1, 6]: 4.4
- Urine protein/creatinine ratio [1, 7]: 0.9
- % inhibition of Factor 11 mRNA in liver relative to the PBS control (Factor 11 mRNA): 89%
- IC50 (human Factor 11 mRNA [4]): 5300 nM
- percent inhibition of Factor 11 at 0.7 μM (human Factor 11 mRNA [4]): 5%
- percent inhibition of Factor 11 at 2.2 μM (human Factor 11 mRNA [4]): 20%
- percent inhibition of Factor 11 at 6.7 μM (human Factor 11 mRNA [4]): 56%
- percent inhibition of Factor 11 at 20 μM (human Factor 11 mRNA [4]): 86%

Substance: 416850 (antisense TGCACAGTTTCTGGCAGGCC; 5-10-5 gapmer, further chemistry not given here) [compound 416850]
- Percent inhibition of human Factor 11 mRNA levels (human Factor 11 mRNA [2]): 91%
- IC50 (human Factor 11 mRNA [3]): 29 nM
- percent inhibition of Factor 11 at 9.375 nM (human Factor 11 mRNA [3]): 4%
- percent inhibition of Factor 11 at 18.75 nM (human Factor 11 mRNA [3]): 30%
- percent inhibition of Factor 11 at 37.5 nM (human Factor 11 mRNA [3]): 67%
- percent inhibition of Factor 11 at 75 nM (human Factor 11 mRNA [3]): 84%
- Urine protein/creatinine ratio [1, 6]: 4.0
- Urine protein/creatinine ratio [1, 7]: 1.0
- % inhibition of Factor 11 mRNA in liver relative to the PBS control (Factor 11 mRNA): 68%
- IC50 (human Factor 11 mRNA [4]): 3400 nM
- percent inhibition of Factor 11 at 0.7 μM (human Factor 11 mRNA [4]): 14%
- percent inhibition of Factor 11 at 2.2 μM (human Factor 11 mRNA [4]): 25%
- percent inhibition of Factor 11 at 6.7 μM (human Factor 11 mRNA [4]): 81%
- percent inhibition of Factor 11 at 20 μM (human Factor 11 mRNA [4]): 91%

Substance: ISIS 449707: 3-8-3, 4-8-4, 2-10-2, 3-10-3 or 4-10-4 MOE microwalk gapmer (Table 46) (antisense e[5mC]*eA*e[5mC]*eA*dG*dT*dT*dT*d[5mC]*dT*dG*dG*e[5mC]*eA*eG*eG)
- Factor 11 mRNA in liver vs PBS control (Factor 11 mRNA): significant reduction of Factor 11 mRNA
